Experiments:
[1] = test system: barnyardgrass; assay: Test A pre-/postemergence greenhouse test; type: in vivo, Echinochloa crus-galli; conditions: for Barnyardgrass plant response rating: 0 to 100 scale; for Plant response rating, Barnyardgrass: 0 to 100 scale where 0 is no effect and 100 is complete control
Procedure, shortened: (§1)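 Seeds sown in a loam soil–sand blend got a preemergence directed soil spray of compound in a non-phytotoxic solvent mixture containing surfactant. Postemergence sprays of the same formulation went at the same time onto plants 2–10 cm tall at the one- to two-leaf stage. Injury was scored visually against untreated controls after about ten days in the greenhouse.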

[2] = test system: crabgrass; assay: Test A pre-/postemergence greenhouse test; type: in vivo, Digitaria sanguinalis; conditions: for Crabgrass, Large plant response rating: 0 to 100 scale; for Plant response rating, Crabgrass, Large: 0 to 100 scale where 0 is no effect and 100 is complete control
Procedure, shortened: as §1

[3] = test system: velvetleaf; assay: Test A pre-/postemergence greenhouse test; type: in vivo, Abutilon theophrasti; conditions: for Velvetleaf plant response rating: 0 to 100 scale; for Plant response rating, Velvetleaf: 0 to 100 scale where 0 is no effect and 100 is complete control
Procedure, shortened: as §1

[4] = test system: corn; assay: Test A pre-/postemergence greenhouse test; type: in vivo, Zea mays; conditions: for Corn plant response rating: 0 to 100 scale; for Plant response rating, Corn: 0 to 100 scale where 0 is no effect and 100 is complete control
Procedure, shortened: as §1

[5] = test system: green foxtail; assay: Test C pre-/postemergence test; type: in vivo, Setaria viridis
Procedure, shortened: (§2)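 Seeds were planted and treated preemergence with test chemical in a non-phytotoxic solvent mixture containing surfactant. Postemergence applications of the same formulation went onto plants 2 to 18 cm tall (1- to 4-leaf stage). A dash marks no test result.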

[6] = test system: Italian ryegrass; assay: Test C pre-/postemergence test; type: in vivo, Lolium multiflorum
Procedure, shortened: as §2

[7] = test system: bermudagrass; assay: Test C pre-/postemergence test; type: in vivo, Cynodon dactylon; conditions: for Plant response rating (0 to 100), Bermudagrass: 250 g ai/ha
Procedure, shortened: as §2

[8] = test system: corn; assay: Test C pre-/postemergence test; type: in vivo, Zea mays; conditions: for Plant response rating (0 to 100), Corn: 250 g ai/ha
Procedure, shortened: as §2

[9] = test system: crabgrass; assay: Test C pre-/postemergence test; type: in vivo, Digitaria sanguinalis; conditions: for Plant response rating (0 to 100), Crabgrass, Large: 250 g ai/ha
Procedure, shortened: as §2

[10] = test system: Goosegrass; assay: Test C pre-/postemergence test; type: in vivo, Eleusin indica; conditions: for Plant response rating (0 to 100), Goosegrass: 250 g ai/ha
Procedure, shortened: as §2

[11] = test system: johnsongrass; assay: Test C pre-/postemergence test; type: in vivo, Sorghum halepense; conditions: for Plant response rating (0 to 100), Johnsongrass: 250 g ai/ha
Procedure, shortened: as §2

[12] = test system: yellow nutsedge; assay: Test C pre-/postemergence test; type: in vivo, Cyperus esculentus
Procedure, shortened: as §2

[13] = test system: pigweed; assay: Test C pre-/postemergence test; type: in vivo, Amaranthus retroflexus
Procedure, shortened: as §2

[14] = test system: soybean; assay: Test C pre-/postemergence test; type: in vivo, Glycine max
Procedure, shortened: as §2

[15] = test system: umbrella sedge; assay: Test C flooded paddy test; type: in vivo, Cyperus difformis; conditions: Flood
Procedure, shortened: (§3)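 Visual injury ratings against untreated controls, taken 13 to 15 days after compound was added to paddy water standing 3 cm above the soil.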

[16] = test system: duck salad; assay: Test C flooded paddy test; type: in vivo, Heteranthera limosa; conditions: Flood
Procedure, shortened: as §3

[17] = test system: barnyardgrass; assay: Test C flooded paddy test; type: in vivo, Echinochloa crus-galli; conditions: Flood
Procedure, shortened: as §3

[18] = Postemergence, 125 g ai/ha, 0 is no effect, 100 is complete control
[19] = Postemergence, 500 g ai/ha, 0 is no effect, 100 is complete control
[20] = Preemergence, 125 g ai/ha, 0 no effect, 100 complete control
[21] = 62 g ai/ha, Preemergence, scale 0 to 100
[22] = Preemergence, 31 g ai/ha, scale 0 to 100 (0 no effect, 100 complete control)
[23] = preemergence, 125 g ai/ha, scale 0 (no effect) to 100 (complete control)
[24] = 31 g ai/ha, scale 0 to 100 (0 no effect, 100 complete control)
[25] = 62 g ai/ha, scale 0 to 100, 0 no effect, 100 complete control, 13 to 15 days
[26] = 125 g ai/ha, scale 0 to 100, 0 no effect, 100 complete control, 13 to 15 days
[27] = 250 g ai/ha, scale 0 to 100, 0 no effect, 100 complete control, 13 to 15 days
[28] = 31 g ai/ha, Preemergence, scale 0 to 100
[29] = 62 g ai/ha, preemergence, scale 0 (no effect) to 100 (complete control)
[30] = 250 g ai/ha, scale 0 to 100 (0 no effect, 100 complete control)

Cc1cc[n+]([O-])c(S(=O)(=O)Cc2c(C(F)(F)F)nn(C)c2OCC(F)(F)F)c1 [Compound 31]
Barnyardgrass plant response rating [1, 18]: 70
Barnyardgrass plant response rating [1, 19]: 90
Barnyardgrass plant response rating [1, 20]: 100
Plant response rating, Barnyardgrass ([1]; Preemergence, 500 g ai/ha): 100
Crabgrass, Large plant response rating [2, 18]: 70
Crabgrass, Large plant response rating [2, 19]: 80
Crabgrass, Large plant response rating [2, 20]: 90
Plant response rating, Crabgrass, Large ([2]; Preemergence, 500 g ai/ha): 100
Velvetleaf plant response rating [3, 18]: 50
Velvetleaf plant response rating [3, 19]: 60
Velvetleaf plant response rating [3, 20]: 30
Plant response rating, Velvetleaf ([3]; Preemergence, 500 g ai/ha): 90
Corn plant response rating [4, 18]: 40
Corn plant response rating [4, 19]: 40
Corn plant response rating [4, 20]: 0
Plant response rating, Corn ([4]; Preemergence, 500 g ai/ha): 50
Foxtail, Green plant response rating [5, 21]: 100
Plant response rating, Foxtail, Green [5, 22]: 100
Ryegrass, Italian plant response rating [6, 21]: 60
Plant response rating, Ryegrass, Italian [6, 22]: 40
Bermudagrass plant response rating ([7]; 62 g ai/ha, Preemergence, scale 0 to 100 (0 no effect, 100 complete control)): 100
Plant response rating, Bermudagrass [7, 22]: 100
Plant response rating (0 to 100), Bermudagrass ([7]; Preemergence): 100
Bermudagrass plant response rating [7, 23]: 100
Corn plant response rating [8, 21]: 50
Plant response rating, Corn [8, 22]: 0
Plant response rating (0 to 100), Corn ([8]; Preemergence): 98
Corn plant response rating [8, 23]: 85
Crabgrass, Large plant response rating [9, 21]: 100
Plant response rating, Crabgrass, Large [9, 22]: 100
Plant response rating (0 to 100), Crabgrass, Large ([9]; Preemergence): 100
Goosegrass plant response rating [10, 21]: 100
Plant response rating, Goosegrass [10, 22]: 100
Plant response rating (0 to 100), Goosegrass ([10]; Preemergence): 100
Johnsongrass plant response rating [11, 21]: 100
Plant response rating, Johnsongrass [11, 22]: 100
Plant response rating (0 to 100), Johnsongrass ([11]; Preemergence): 100
Nutsedge, Yellow plant response rating [12, 21]: 100
Plant response rating, Nutsedge, Yellow [12, 22]: 60
Pigweed plant response rating [13, 21]: 100
Plant response rating, Pigweed [13, 22]: 100
Soybean plant response rating [14, 21]: 15
Plant response rating, Soybean [14, 22]: 10
Plant response rating, Sedge, Umbrella [15, 24]: 65
Plant response rating, Sedge, Umbrella [15, 25]: 85
Plant response rating, Sedge, Umbrella [15, 26]: 100
Plant response rating, Sedge, Umbrella [15, 27]: 100
Plant response rating, Ducksalad [16, 24]: 45
Plant response rating, Ducksalad [16, 25]: 45
Plant response rating, Ducksalad [16, 26]: 80
Plant response rating, Ducksalad [16, 27]: 90
Plant response rating, Barnyardgrass [17, 24]: 0
Plant response rating, Barnyardgrass [17, 25]: 0
Plant response rating, Barnyardgrass [17, 26]: 30
Plant response rating, Barnyardgrass [17, 27]: 75

Cn1nc(C(F)(F)F)c(CS(=O)(=O)c2cccc[n+]2[O-])c1Cl [Compound 9]
Barnyardgrass plant response rating [1, 18]: 80
Barnyardgrass plant response rating [1, 19]: 80
Barnyardgrass plant response rating [1, 20]: 100
Plant response rating, Barnyardgrass ([1]; Preemergence, 500 g ai/ha): 100
Crabgrass, Large plant response rating [2, 18]: 80
Crabgrass, Large plant response rating [2, 19]: 90
Crabgrass, Large plant response rating [2, 20]: 100
Plant response rating, Crabgrass, Large ([2]; Preemergence, 500 g ai/ha): 100
Velvetleaf plant response rating [3, 18]: 0
Velvetleaf plant response rating [3, 19]: 30
Velvetleaf plant response rating [3, 20]: 50
Plant response rating, Velvetleaf ([3]; Preemergence, 500 g ai/ha): 60
Corn plant response rating [4, 18]: 20
Corn plant response rating [4, 19]: 60
Corn plant response rating [4, 20]: 40
Plant response rating, Corn ([4]; Preemergence, 500 g ai/ha): 60
Foxtail, Green plant response rating [5, 28]: 85
Foxtail, Green plant response rating [5, 29]: 100
Plant response rating (0 to 100), Foxtail, Green ([5]; Preemergence, 250 g ai/ha): 100
Foxtail, Green plant response rating [5, 23]: 100
Ryegrass, Italian plant response rating [6, 28]: 0
Ryegrass, Italian plant response rating [6, 29]: 50
Plant response rating (0 to 100), Ryegrass, Italian ([6]; Preemergence, 250 g ai/ha): 65
Ryegrass, Italian plant response rating [6, 23]: 65
Bermudagrass plant response rating [7, 28]: 98
Plant response rating (0 to 100), Bermudagrass ([7]; Preemergence): 100
Bermudagrass plant response rating [7, 23]: 100
Corn plant response rating [8, 28]: 20
Plant response rating (0 to 100), Corn ([8]; Preemergence): 98
Corn plant response rating [8, 23]: 98
Crabgrass, Large plant response rating [9, 28]: 100
Plant response rating (0 to 100), Crabgrass, Large ([9]; Preemergence): 100
Crabgrass, Large plant response rating [9, 23]: 100
Goosegrass plant response rating [10, 28]: 100
Plant response rating (0 to 100), Goosegrass ([10]; Preemergence): 100
Goosegrass plant response rating [10, 23]: 100
Johnsongrass plant response rating [11, 28]: 45
Plant response rating (0 to 100), Johnsongrass ([11]; Preemergence): 100
Johnsongrass plant response rating [11, 23]: 100
Nutsedge, Yellow plant response rating [12, 28]: 40
Plant response rating (0 to 100), Nutsedge, Yellow ([12]; Preemergence, 250 g ai/ha): 100
Nutsedge, Yellow plant response rating [12, 23]: 100
Pigweed plant response rating [13, 28]: 100
Plant response rating (0 to 100), Pigweed ([13]; Preemergence, 250 g ai/ha): 100
Pigweed plant response rating [13, 23]: 100
Soybean plant response rating [14, 28]: 10
Plant response rating (0 to 100), Soybean ([14]; Preemergence, 250 g ai/ha): 45
Soybean plant response rating [14, 23]: 40
Plant response rating, Sedge, Umbrella [15, 24]: 0
Plant response rating, Sedge, Umbrella [15, 25]: 85
Plant response rating, Sedge, Umbrella [15, 26]: 90
Plant response rating, Sedge, Umbrella [15, 30]: 100
Plant response rating, Ducksalad [16, 24]: 0
Plant response rating, Ducksalad [16, 25]: 65
Plant response rating, Ducksalad [16, 26]: 85
Plant response rating, Ducksalad [16, 30]: 90
Plant response rating, Barnyardgrass [17, 24]: 0
Plant response rating, Barnyardgrass [17, 25]: 60
Plant response rating, Barnyardgrass [17, 26]: 85
Plant response rating, Barnyardgrass [17, 30]: 90

Reference: patent US20100298141A1, “SUBSTITUTED PYRIDINE N-OXIDE HERBICIDES” (E. I. DU PONT DE NEMOURS AND COMPANY, priority 2007, published 2010)
